From article PMC12582325 (Proceedings of the National Academy of Sciences of the …, 2025)
Where a SMILES comes first, the peptide text is derived from it.

Experiments:
Fg.Ste2 [1] = format: cell-based, Fusarium graminearum
Fo.Ste2 [2] = format: cell-based, Fusarium oxysporum
Fg.Ste2 [3] = settings: SC-AS/Urea compared to SC media with ammonium sulfate alone
Bb.Ste2 [4] = format: cell-based, Beauveria bassiana
Hj.Hpr2 = format: cell-based, Hypocrea jecorina
[5] = tested on: no_GPCR (negative control lacking a GPCR); format: cell-based, Saccharomyces cerevisiae; settings: SC-AS/Urea compared to SC media with ammonium sulfate alone
Bb.Ste2 [6] = format: cell-based, Beauveria bassiana; remark: listed apart in the source
Bc.Ste2 = format: cell-based, Botrytis cinerea
Fo.Ste2 [7] = format: cell-based, Fusarium oxysporum; remark: listed apart in the source

WCIQSGQPCW [A3, Fg.Ste2 - Agonist candidate from the YPL1 pheromone library]
Sup.Fig.3A Fg.Ste2 biosensor response, group mean (Fg.Ste2 [1]; Control mean 1, mean of n = 4): 1.455
Activation of Fg.Ste2 biosensor, in words (Fg.Ste2 [1]; chemically synthesized pheromone): almost no effect

NC(N)=O [Urea]
Effect on abundance of diploids with Fo.Ste2 (Fo.Ste2 [2]): did not affect
Fold decrease in the abundance of diploids with Fg.Ste2 (Fg.Ste2 [3]): 0.8 fold
Increase of diploids containing Bb.Ste2 (Bb.Ste2 [4]): fourfold
Fold increase of diploids containing Hj.Hpr2 (Hj.Hpr2): 20 fold
Effect on abundance of diploids with the control strain no_GPCR [5]: did not affect

CC(C)C[C@H](NC(=O)[C@H](CS)NC(=O)[C@@H](N)Cc1c[nH]c2ccccc12)C(=O)N[C@@H](CCCNC(=N)N)C(=O)N[C@H](C(=O)NCC(=O)N[C@@H](CCC(N)=O)C(=O)N1CCC[C@H]1C(=O)N[C@@H](CS)C(=O)N[C@@H](Cc1c[nH]c2ccccc12)C(=O)O)C(C)C [A1] (H-WCLRVGQPCW-OH; N-terminus and C-terminus assumed)
logEC50 (Bb.Ste2 [6]): -9.317

CC(C)C[C@H](NC(=O)[C@H](CC(C)C)NC(=O)[C@H](CS)NC(=O)[C@@H](N)Cc1c[nH]c2ccccc12)C(=O)N[C@@H](CC(=O)O)C(=O)NCC(=O)N[C@@H](CCC(N)=O)C(=O)N1CCC[C@H]1C(=O)N[C@@H](CS)C(=O)N[C@@H](Cc1c[nH]c2ccccc12)C(=O)O [A6] (H-WCLLDGQPCW-OH; N-terminus and C-terminus assumed)
Hillslope (Bc.Ste2): 0.5567
logEC50 (Bc.Ste2): -8.01
Sup.Fig.3A Bc.Ste2 biosensor response, group mean (Bc.Ste2; 10 μM): 1.225

NCCCC[C@H](NC(=O)[C@H](CO)NC(=O)CNC(=O)[C@H](CS)NC(=O)[C@@H](N)Cc1c[nH]c2ccccc12)C(=O)NCC(=O)N[C@@H](CCC(N)=O)C(=O)N1CCC[C@H]1C(=O)N[C@@H](CS)C(=O)N[C@@H](Cc1c[nH]c2ccccc12)C(=O)O [A2] (H-WCGSKGQPCW-OH; N-terminus and C-terminus assumed)
Activation of Bb.Ste2 biosensor, in words (Bb.Ste2 [6]): higher EC50 values
Hillslope (Bb.Ste2 [6]): 1.362
logEC50 (Bb.Ste2 [6]): -3.661

CC(C)C[C@H](NC(=O)[C@H](CS)NC(=O)[C@@H](N)Cc1c[nH]c2ccccc12)C(=O)N[C@@H](Cc1c[nH]c2ccccc12)C(=O)N[C@@H](CCCNC(=N)N)C(=O)NCC(=O)N[C@@H](CCC(N)=O)C(=O)N1CCC[C@H]1C(=O)N[C@@H](CS)C(=O)N[C@@H](Cc1c[nH]c2ccccc12)C(=O)O [A5] (H-WCLWRGQPCW-OH; N-terminus assumed)
EC50 fold lower than that of the native Fo alpha pheromone (Fo.Ste2 [7]): at least 13 fold
logEC50 (Fo.Ste2 [7]): -8.637
